For 10 molecules, TGI results are on record in PubChem BioAssay (NCI).

Some test systems named below: OVCAR-4 ovarian; KM12 colon; UO-31 renal; U251 CNS; 786-0 renal; CAKI-1 renal; MCF7 breast; SF-268 CNS; BT-549 breast; LOX IMVI melanoma.
Assay in all cases: NCI anticancer screen, dose series, 48 h

Structures are written as SMILES.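 Method: 48-hour compound exposure of cells in 96-well plates, five concentrations, linear interpolation of endpoints. The concentration for full growth arrest is given as TGI.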

In the case of `Oc1ccc2c(c1)-c1c(c3cc(O)ccc3n1CCN1CCOCC1)CC2`, the TGI was 67.2 µM with OVCAR-4 ovarian; over 100 µM with KM12 colon; 57.9 µM in the test with UO-31 renal; 49 µM in the test on U251 CNS; 53.3 µM in the test with 786-0 renal; 70.5 µM in the test on CAKI-1 renal. For the same molecule, the TGI is 57.8 µM in the test on MCF7 breast, over 100 µM in the test with SF-268 CNS, 38.2 µM in the test on BT-549 breast and 35.7 µM in the test with LOX IMVI melanoma.

Consider `COCn1c2ccc(OC(C)=O)cc2c2c(=O)oc(C)nc21`, for which the TGI in the test on OVCAR-4 ovarian, in the test on KM12 colon, in the test with UO-31 renal, in the test on U251 CNS, in the test on 786-0 renal and with CAKI-1 renal was over 100 µM throughout. Further, the TGI with MCF7 breast, in the test with SF-268 CNS, in the test with BT-549 breast and with LOX IMVI melanoma was over 100 µM in each case.

For the molecule `Cc1c(-c2ccccc2)c(C#N)c2nnn(-c3ccccc3)c(=O)n12`, the TGI with OVCAR-4 ovarian, with KM12 colon, in the test on UO-31 renal, with U251 CNS, in the test with 786-0 renal and in the test on CAKI-1 renal was over 100 µM in each case. Besides, the TGI with MCF7 breast, in the test with SF-268 CNS, with BT-549 breast and with LOX IMVI melanoma was over 100 µM each time.

Consider `O=C(NCC1Nc2ccncc2S(=O)(=O)N1)c1ccc(Br)cc1` (stereo not given), for which the TGI with OVCAR-4 ovarian, with KM12 colon, in the test on UO-31 renal, with U251 CNS, in the test on 786-0 renal and in the test with CAKI-1 renal was over 100 µM throughout. Also, the TGI in the test on MCF7 breast was over 100 µM; in the test on SF-268 CNS it was 81.2 µM; with BT-549 breast it was over 100 µM; with LOX IMVI melanoma, over 100 µM.

`O=C1Cc2c(-c3ccc(Cl)cc3)cc(-c3ccccc3)nc2-c2ccccc2N1`: the TGI was 26.4 µM in the test with OVCAR-4 ovarian; over 100 µM in the test on KM12 colon; 14.8 µM with UO-31 renal; 17.8 µM in the test on U251 CNS; 4.92 µM in the test with 786-0 renal; 19.4 µM with CAKI-1 renal. The TGI was over 42.5 µM in the test with MCF7 breast, 48.9 µM with SF-268 CNS, 50.7 µM in the test with BT-549 breast and 22.8 µM with LOX IMVI melanoma.

`Cc1c2c(n3c(nc4ccccc43)c1C#N)SCC2`: the TGI in the test with OVCAR-4 ovarian, with KM12 colon, in the test on UO-31 renal, with U251 CNS, in the test with 786-0 renal and in the test with CAKI-1 renal was over 10 µM in each case. Also, the TGI in the test on MCF7 breast, in the test on SF-268 CNS, in the test with BT-549 breast and in the test on LOX IMVI melanoma was over 10 µM throughout.

As for `COc1cc2c(cc1OCCCC(=O)Nc1cc(C(=O)Nc3cc(C(=O)Nc4cc(C(=O)NCCCN(C)C)n(C)c4)n(C)c3)n(C)c1)N=C[C@@H]1CCCN1C2=O`, the TGI in the test with OVCAR-4 ovarian is 3.15 µM; in the test on KM12 colon, over 52.2 µM; with UO-31 renal it was 3.06 µM; in the test on U251 CNS, 3.01 µM; with 786-0 renal, 2.37 µM; in the test with CAKI-1 renal it was 1.26 µM. Moreover, the TGI was determined as 7.25 µM in the test with MCF7 breast, 3.31 µM in the test with SF-268 CNS, 4.91 µM in the test on BT-549 breast and 2.26 µM with LOX IMVI melanoma.

In the case of `COCn1c(C)c(C)c2c(=O)oc(=O)[nH]c21`, the TGI with OVCAR-4 ovarian, in the test with KM12 colon, with UO-31 renal, in the test on U251 CNS, with 786-0 renal and in the test on CAKI-1 renal was over 100 µM throughout. Besides, the TGI with MCF7 breast, in the test with SF-268 CNS, in the test with BT-549 breast and in the test with LOX IMVI melanoma was over 100 µM in each case.

Turning to `CN(Cc1c2ccccc2cc2ccccc12)S(=O)(=O)c1ccc(-c2c3nc(c(-c4ccc(S(=O)(=O)N(C)Cc5c6ccccc6cc6ccccc56)cc4)c4ccc([nH]4)c(-c4ccc(S(=O)(=O)N(C)Cc5c6ccccc6cc6ccccc56)cc4)c4nc(c(-c5ccc(S(=O)(=O)N(C)Cc6c7ccccc7cc7ccccc67)cc5)c5ccc2[nH]5)C=C4)C=C3)cc1`, the TGI with OVCAR-4 ovarian, in the test on KM12 colon, with UO-31 renal, in the test on U251 CNS, in the test with 786-0 renal and with CAKI-1 renal was over 100 µM in each case. Besides, the TGI with MCF7 breast, in the test on SF-268 CNS, with BT-549 breast and in the test with LOX IMVI melanoma was over 100 µM each time.

Take `Cc1cc(NS(=O)(=O)c2ccc(NC(=O)c3ccc4nc5ccccc5c(Nc5ccc(S(=O)(=O)N=C(N)N)cc5)c4c3)cc2)no1`: the TGI in the test on OVCAR-4 ovarian stood at 31.4 µM; in the test on KM12 colon it was 32.2 µM; in the test on UO-31 renal, 32.1 µM; in the test on U251 CNS, 30 µM; with 786-0 renal it was 30.6 µM; in the test with CAKI-1 renal, 33.6 µM. In addition, the TGI amounted to 36.4 µM with MCF7 breast, 37.3 µM with SF-268 CNS, 46 µM with BT-549 breast and 23.1 µM in the test on LOX IMVI melanoma.
